Target: PCSK9 (Homo sapiens, UniProt Q8NBP7)
Test: SPR competition assay against the EGFa domain of LDLR
Assay type: binding

`COc1ccc2nc(N)[nH]c2c1C#N` [Fig 12A, cyano-benzimidazole derivative] showed an IC50 of 103 µM.
